According to ChEMBL document CHEMBL4425188, “Synthesis and immunostimulatory activity of substituted TLR7 agonists” (Bioorg Med Chem Lett, 2016):
Calls of active or inactive are those of the source. The calls are words filed in the database; no cut-off is given here.

Key:
Homo sapiens = organism: Homo sapiens; assay: Immunostimulatory activity in CFSE-labeled human NK cells assessed as TLR7 agonist-induced cell proliferation at 2 to 200 nM after 6 days by FACS analysis; assay type: functional
[1] = target: T1, Toll-like receptor 9 (Homo sapiens) (UniProt Q9NR96); assay: Agonist activity at human TLR9 expressed in HEK293 cells at 5 to 1000 ng/ml by QUANTI-blue SEAP reporter gene assay; assay type: cell-based
T1 sequence (whole entry): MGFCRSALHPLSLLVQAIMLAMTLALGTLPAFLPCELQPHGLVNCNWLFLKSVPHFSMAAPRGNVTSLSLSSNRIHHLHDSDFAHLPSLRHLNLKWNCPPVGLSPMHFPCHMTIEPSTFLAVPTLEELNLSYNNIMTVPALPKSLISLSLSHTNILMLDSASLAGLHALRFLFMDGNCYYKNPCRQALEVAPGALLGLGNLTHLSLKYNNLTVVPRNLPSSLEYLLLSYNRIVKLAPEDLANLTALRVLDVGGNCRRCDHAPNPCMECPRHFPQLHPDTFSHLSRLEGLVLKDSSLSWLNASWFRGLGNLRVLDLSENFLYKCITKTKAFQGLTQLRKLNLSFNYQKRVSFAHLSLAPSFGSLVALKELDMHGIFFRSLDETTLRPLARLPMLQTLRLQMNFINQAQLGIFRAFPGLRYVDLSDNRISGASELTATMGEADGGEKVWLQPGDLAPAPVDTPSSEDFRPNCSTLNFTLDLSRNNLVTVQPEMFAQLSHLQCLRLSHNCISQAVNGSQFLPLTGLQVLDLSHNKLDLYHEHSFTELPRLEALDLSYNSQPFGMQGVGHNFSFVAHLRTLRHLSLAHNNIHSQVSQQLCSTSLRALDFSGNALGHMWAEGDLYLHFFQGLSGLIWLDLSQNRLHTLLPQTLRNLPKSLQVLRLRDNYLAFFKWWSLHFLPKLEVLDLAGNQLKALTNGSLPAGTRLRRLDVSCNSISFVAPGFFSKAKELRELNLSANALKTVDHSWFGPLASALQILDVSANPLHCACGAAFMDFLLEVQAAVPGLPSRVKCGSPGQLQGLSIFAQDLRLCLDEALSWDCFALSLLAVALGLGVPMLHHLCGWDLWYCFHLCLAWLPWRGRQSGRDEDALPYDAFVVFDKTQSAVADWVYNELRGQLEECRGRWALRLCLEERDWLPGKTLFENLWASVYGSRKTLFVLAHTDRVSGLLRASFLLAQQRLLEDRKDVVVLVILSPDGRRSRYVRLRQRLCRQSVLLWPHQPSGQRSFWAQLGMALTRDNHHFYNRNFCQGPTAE

B cell = assay: Immunostimulatory activity in CFSE-labeled human B cells assessed as TLR7 agonist-induced cell proliferation after 6 days by FACS analysis; assay type: functional, cell-based; settings: 144 h
[2] = target: T2, Toll-like receptor 8 (Homo sapiens) (UniProt Q9NR97); assay: Agonist activity at human TLR8 expressed in HEK293 cells at 5 to 1000 ng/ml by QUANTI-blue SEAP reporter gene assay; assay type: cell-based
T2 sequence (whole entry): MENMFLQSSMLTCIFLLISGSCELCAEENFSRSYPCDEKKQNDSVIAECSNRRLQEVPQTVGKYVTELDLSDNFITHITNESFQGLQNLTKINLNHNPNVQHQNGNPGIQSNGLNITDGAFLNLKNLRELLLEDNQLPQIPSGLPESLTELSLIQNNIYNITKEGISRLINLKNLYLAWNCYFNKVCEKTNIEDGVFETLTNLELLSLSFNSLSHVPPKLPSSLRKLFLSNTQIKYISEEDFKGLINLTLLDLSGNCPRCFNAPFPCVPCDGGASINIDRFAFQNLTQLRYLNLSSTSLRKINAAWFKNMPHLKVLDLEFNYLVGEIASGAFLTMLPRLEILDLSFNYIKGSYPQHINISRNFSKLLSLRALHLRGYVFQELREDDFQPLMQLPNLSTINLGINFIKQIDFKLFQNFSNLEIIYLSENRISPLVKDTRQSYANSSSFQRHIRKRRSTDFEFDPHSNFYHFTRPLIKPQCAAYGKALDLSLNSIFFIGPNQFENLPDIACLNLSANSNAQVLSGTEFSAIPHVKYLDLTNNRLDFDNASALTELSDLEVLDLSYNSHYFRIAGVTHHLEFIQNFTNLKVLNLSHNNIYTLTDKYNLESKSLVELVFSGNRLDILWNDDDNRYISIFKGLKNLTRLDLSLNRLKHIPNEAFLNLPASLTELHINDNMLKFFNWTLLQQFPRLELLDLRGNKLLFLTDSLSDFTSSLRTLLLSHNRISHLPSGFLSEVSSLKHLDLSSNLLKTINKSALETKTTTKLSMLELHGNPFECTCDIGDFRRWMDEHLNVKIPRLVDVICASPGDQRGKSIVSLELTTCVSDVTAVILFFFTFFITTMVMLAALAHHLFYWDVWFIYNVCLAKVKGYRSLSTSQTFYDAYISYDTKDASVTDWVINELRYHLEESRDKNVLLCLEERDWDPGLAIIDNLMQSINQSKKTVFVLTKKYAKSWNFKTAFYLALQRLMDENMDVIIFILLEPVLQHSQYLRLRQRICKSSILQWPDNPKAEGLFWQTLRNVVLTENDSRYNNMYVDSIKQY

[3] = target: T3, Toll-like receptor 7 (Homo sapiens) (UniProt Q9NYK1); assay: Agonist activity at human TLR7 expressed in HEK293 cells at <= 500 ng/ml by QUANTI-blue SEAP reporter gene assay; assay type: cell-based
T3 sequence (whole entry): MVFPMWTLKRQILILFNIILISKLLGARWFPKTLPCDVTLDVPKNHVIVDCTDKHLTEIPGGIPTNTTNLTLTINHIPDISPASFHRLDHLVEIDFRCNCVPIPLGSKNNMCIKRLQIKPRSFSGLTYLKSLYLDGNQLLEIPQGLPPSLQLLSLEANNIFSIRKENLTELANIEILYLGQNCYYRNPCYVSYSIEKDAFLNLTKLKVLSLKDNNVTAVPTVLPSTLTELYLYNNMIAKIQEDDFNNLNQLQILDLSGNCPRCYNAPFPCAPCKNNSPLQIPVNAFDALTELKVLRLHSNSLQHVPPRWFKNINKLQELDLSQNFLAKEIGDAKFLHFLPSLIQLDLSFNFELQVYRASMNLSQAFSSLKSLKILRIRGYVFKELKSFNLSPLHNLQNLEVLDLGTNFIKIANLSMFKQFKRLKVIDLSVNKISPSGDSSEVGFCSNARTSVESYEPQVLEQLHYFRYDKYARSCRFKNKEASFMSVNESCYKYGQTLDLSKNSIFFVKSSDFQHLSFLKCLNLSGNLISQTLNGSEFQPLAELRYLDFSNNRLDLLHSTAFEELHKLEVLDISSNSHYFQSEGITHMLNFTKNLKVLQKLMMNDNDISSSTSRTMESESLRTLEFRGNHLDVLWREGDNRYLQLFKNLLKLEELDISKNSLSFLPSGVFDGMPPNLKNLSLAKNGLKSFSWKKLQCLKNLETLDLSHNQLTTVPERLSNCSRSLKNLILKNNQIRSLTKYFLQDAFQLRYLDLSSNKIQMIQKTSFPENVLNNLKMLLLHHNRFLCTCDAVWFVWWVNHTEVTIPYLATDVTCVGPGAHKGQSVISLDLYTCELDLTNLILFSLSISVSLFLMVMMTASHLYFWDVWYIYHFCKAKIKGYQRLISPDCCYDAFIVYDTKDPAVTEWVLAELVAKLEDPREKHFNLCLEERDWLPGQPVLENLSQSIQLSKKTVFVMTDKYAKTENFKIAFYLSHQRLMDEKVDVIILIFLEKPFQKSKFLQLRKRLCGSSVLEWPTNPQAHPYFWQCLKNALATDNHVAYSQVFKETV

T-cell = assay: Immunostimulatory activity in CFSE-labeled human T cells assessed as TLR7 agonist-induced cell proliferation at 2 to 200 nM after 6 days by FACS analysis; assay type: functional, cell-based
HEK293 = assay: Induction of SEAP reporter gene expression in TLR-deficient HEK293 cells at 5 to 1000 ng/ml; assay type: functional, cell-based; settings: Homo sapiens

Row | Compound | Activity (Homo sapiens) | Activity [1] | EC50 (B cell) [nM] | Activity [2] | Activity [3] | Activity (T-cell) | Activity (HEK293)
1 | CCCCOc1nc(N)c2nc(O)n(Cc3ccc(C(=O)NCCOCCOCCNC(=O)OC(C)(C)C)cc3)c2n1 | inactive | inactive | 46.4 | inactive | Active | inactive | inactive
2 | CCCCOc1nc(N)c2nc(NC)n(Cc3ccccc3)c2n1 | inactive | inactive | 969 | inactive | Active | inactive | inactive
3 | CCCCOc1nc(N)c2nc(O)n(Cc3ccc(C(=O)NCCC(=O)N4Cc5ccccc5C#Cc5ccccc54)cc3)c2n1 | – | inactive | – | inactive | Active | – | inactive
4 | CCCCOc1nc(N)c2nc(O)n(Cc3ccc(C(=O)NCCNC(=O)C4CCC(CN5C(=O)C=CC5=O)CC4)cc3)c2n1 (centres undefined) | – | inactive | – | inactive | Active | – | inactive
5 | CCCCOc1nc(N)c2nc(O)n(Cc3ccc(C(=O)NCc4ccc(OC)cc4)cc3)c2n1 | inactive | inactive | 60.5 | inactive | Active | inactive | inactive
